In patent US8791148B2, “Substituted benzimidazolone derivatives, medicaments comprising them and their use” (AbbVie Deutschland GmbH & Co. KG, priority 2006, dated 2014):

Biological target: T1, human vasopressin V1b receptor (Homo sapiens, UniProt P47901)
T1 construct: expressed in transfected cells; host or cells: CHO-K1 (cell line hV1b-3H2_CHO), membrane preparation
T1 sequence (P47901 1-424): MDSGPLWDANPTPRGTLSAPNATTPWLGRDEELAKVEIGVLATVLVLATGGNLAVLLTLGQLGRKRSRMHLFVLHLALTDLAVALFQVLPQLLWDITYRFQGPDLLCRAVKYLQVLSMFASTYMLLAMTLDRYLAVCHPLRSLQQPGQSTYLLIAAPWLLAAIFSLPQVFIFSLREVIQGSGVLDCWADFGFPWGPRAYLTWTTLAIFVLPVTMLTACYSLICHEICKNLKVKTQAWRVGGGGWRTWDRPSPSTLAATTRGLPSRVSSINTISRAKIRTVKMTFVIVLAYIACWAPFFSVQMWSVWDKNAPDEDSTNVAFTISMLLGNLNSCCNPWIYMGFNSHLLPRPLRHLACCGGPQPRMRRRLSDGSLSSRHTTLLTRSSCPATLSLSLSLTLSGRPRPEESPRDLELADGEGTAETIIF
Assay: Vasopressin V1b receptor binding assay
Settings: membranes from CHO-K1 cells with stably expressed human V1b receptors; displacement of 1.5 nM 3H-AVP; read-out: V1b receptor affinity (affinity constant Ki)
Method in brief: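 Membranes expressing human V1b receptor were incubated with radioligand and test compound (2% DMSO final) in 50 mM Tris, 10 mM MgCl2, 0.1% BSA, pH 7.4, for 60 min at room temperature, in triplicate. 1 uM AVP defined nonspecific binding. Bound ligand was separated by filtration and counted by scintillation; Ki came from nonlinear regression.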

Ki [nM]	SMILES
500 to 10000	CN1CCN(C2CCN(C(=O)C(c3ccccc3)n3c(=O)n(S(=O)(=O)c4cccc5cccnc45)c4ccc(Cl)cc43)CC2)CC1 (centres unmarked) [Example 3, 5-Chloro-3-{2-[4-(4-methylpiperazin-1-yl)piperidin-1-yl]-2-oxo-1-phenyl-ethyl}-1-(quinoline-8-sulfonyl)-1,3-dihydrobenzimidazol-2-one]
500 to 10000	COc1ccc(S(=O)(=O)n2c(=O)n(C(C(=O)N3CCN(c4ncncn4)CC3)c3ccccc3)c3cc(Cl)ccc32)cc1 (centres unmarked) [Example 89, 5-Chloro-1-(4-methoxybenzenesulfonyl)-3-[2-oxo-1-phenyl-2-(4-[1,3,5]triazin-2-ylpiperazin-1-yl)-ethyl]-1,3-dihydrobenzimidazol-2-one]
100 to 500	COc1ccc(S(=O)(=O)n2c(=O)n(C(C)C(=O)N3CCN(c4ccncc4)CC3)c3cc(Cl)ccc32)c(OC)c1 (centres unmarked) [Example 31, 5-Chloro-1-(2,4-dimethoxybenzenesulfonyl)-3-[1-methyl-2-oxo-2-(4-pyridin-4-ylpiperazin-1-yl)ethyl]-1,3-dihydrobenzimidazol-2-one]
500 to 10000	COc1cc(C)ccc1S(=O)(=O)n1c(=O)n(C(C(=O)N2CCN(c3ccncc3)CC2)c2ccccc2)c2cc(Cl)ccc21 (centres unmarked) [Example 43, 5-Chloro-1-(2-methoxy-4-methyl-benzenesulfonyl)-3-[2-oxo-1-phenyl-2-(4-pyridin-4-ylpiperazin-1-yl)ethyl]-1,3-dihydrobenzimidazol-2-one]
< 100	COc1ccc(S(=O)(=O)n2c(=O)n(C(C(=O)N3CC[C@@H](N4CCNCC4)C3)c3ccccc3)c3cc(C#N)ccc32)cc1 (stereo partly drawn) [Example 151, 1-(4-Methoxybenzenesulfonyl)-2-oxo-3-[2-oxo-1-phenyl-2-((R)-3-piperazin-1-ylpyrrolidin-1-yl)ethyl]-2,3-dihydro-1H-benzimidazole-5-carbonitrile]
100 to 500	O=C(C(c1ccccc1)n1c(=O)n(S(=O)(=O)c2ccccc2)c2ccc(Cl)cc21)N1CCN(c2ccncc2)CC1 (centres unmarked) [Example 47, 1-Benzenesulfonyl-5-chloro-3-[2-oxo-1-phenyl-2-(4-pyridin-4-ylpiperazin-1-yl)ethyl]-1,3-dihydrobenzimidazol-2-one]
500 to 10000	O=C(C(c1ccccc1)n1c(=O)n(S(=O)(=O)c2ccc(C(F)(F)F)cc2)c2ccc(Cl)cc21)N1CCN(c2ccncc2)CC1 (centres unmarked) [Example 49, 5-Chloro-3-[2-oxo-1-phenyl-2-(4-pyridin-4-ylpiperazin-1-yl)ethyl]-1-(4-trifluoromethylbenzenesulfonyl)-1,3-dihydrobenzimidazol-2-one]
100 to 500	COc1ccc(S(=O)(=O)n2c(=O)n(C(C(=O)N3CCC(N4CCN(C)CC4)CC3)c3ccccc3)c3cc(Cl)ccc32)c(OC)c1 (centres unmarked) [Example 63, 5-Chloro-1-(2,4-dimethoxybenzenesulfonyl)-3-{2-[4-(4-methylpiperazin-1-yl)piperidin-1-yl]-2-oxo-1-phenylethyl}-1,3-dihydrobenzimidazol-2-one]
< 100	COc1ccc(S(=O)(=O)n2c(=O)n(C(C(=O)N3CC[C@H](N4CCN(C)CC4)C3)c3ccccc3)c3cc(C#N)ccc32)cc1 (stereo partly drawn) [Example 160, 1-(4-Methoxybenzenesulfonyl)-3-{2-[(S)-3-(4-methylpiperazin-1-yl)-pyrrolidin-1-yl]-2-oxo-1-phenylethyl}-2-oxo-2,3-dihydro-1H-benzimidazole-5-carbonitrile]
500 to 10000	COc1ccc(S(=O)(=O)n2c(=O)n(C(C(=O)NCCCN3CCOCC3)c3ccccc3)c3cc(Cl)ccc32)cc1 (centres unmarked) [Example 113, 2-[6-Chloro-3-(4-methoxybenzenesulfonyl)-2-oxo-2,3-dihydrobenzimidazol-1-yl]-N-(3-morpholin-4-yl-propyl)-2-phenyl-acetamide]
< 100	COc1ccc(S(=O)(=O)n2c(=O)n(C(C(=O)N3CC[C@H](NC4CCN(C(C)(C)C)CC4)C3)c3ccccc3)c3cc(C#N)ccc32)cc1 (stereo partly drawn) [Example 244, 3-{2-[(S)-3-(1-tert-Butyl-piperidin-4-ylamino)-pyrrolidin-1-yl]-2-oxo-1-phenylethyl}-1-(4-methoxy-benzenesulfonyl)-2-oxo-2,3-dihydro-1H-benzoimidazole-5-carbonitrile]
500 to 10000	COc1ccc(S(=O)(=O)n2c(=O)n(C(C(=O)N3CCC(N4CCN(C)CC4)CC3)c3ccccc3)c3ccccc32)c(OC)c1 (centres unmarked) [Example 72, 1-(2,4-Dimethoxybenzenesulfonyl)-3-{2-[4-(4-methylpiperazin-1-yl)piperidin-1-yl]-2-oxo-1-phenylethyl}-1,3-dihydrobenzimidazol-2-one]
500 to 10000	COc1ccc(S(=O)(=O)n2c(=O)n(C(C(=O)N3CCN(c4cccnc4)CC3)c3ccccc3)c3cc(Cl)ccc32)cc1 (centres unmarked) [Example 94, 5-Chloro-1-(4-methoxybenzenesulfonyl)-3-[2-oxo-1-phenyl-2-(4-pyridin-3-ylpiperazin-1-yl)ethyl]-1,3-dihydrobenzimidazol-2-one]
< 100	COc1ccc(S(=O)(=O)n2c(=O)n(C(C(=O)N3CCC(NC4CCN(C)CC4)CC3)c3ccccc3)c3cc(C#N)ccc32)cc1 (centres unmarked) [Example 206, 1-(4-Methoxybenzenesulfonyl)-3-{2-[4-(1-methylpiperidin-4-ylamino)piperidin-1-yl]-2-oxo-1-phenylethyl}-2-oxo-2,3-dihydro-1H-benzimidazole-5-carbonitrile]
500 to 10000	COc1ccc(S(=O)(=O)n2c(=O)n(C(C(=O)N3CCN(C)CC3)c3ccccc3)c3cc(Cl)ccc32)cc1 (centres unmarked) [Example 98, 5-Chloro-1-(4-methoxybenzenesulfonyl)-3-[2-(4-methylpiperazin-1-yl)-2-oxo-1-phenylethyl]-1,3-dihydrobenzimidazol-2-one]
500 to 10000	COc1ccc(S(=O)(=O)n2c(=O)n(C(C(=O)N3CCOCC3)c3ccccc3)c3cc(Cl)ccc32)cc1 (centres unmarked) [Example 99, 5-Chloro-1-(4-methoxybenzenesulfonyl)-3-(2-morpholin-4-yl-2-oxo-1-phenylethyl)-1,3-dihydrobenzimidazol-2-one]
500 to 10000	COc1ccc(S(=O)(=O)n2c(=O)n(C(C(=O)NCc3cccnc3)c3ccccc3)c3cc(Cl)ccc32)cc1 (centres unmarked) [Example 112, 2-[6-Chloro-3-(4-methoxybenzenesulfonyl)-2-oxo-2,3-dihydrobenzimidazol-1-yl]-2-phenyl-N-pyridin-3-ylmethylacetamide]
< 100	COc1ccc(S(=O)(=O)n2c(=O)n(C(C(=O)N3CC[C@H](NC4CCNCC4)C3)c3ccccc3)c3cc(Cl)ccc32)cc1 (stereo partly drawn) [Example 177, 5-Chloro-1-(4-methoxybenzenesulfonyl)-3-{2-oxo-1-phenyl-2-[(S)-3-(piperidin-4-ylamino)pyrrolidin-1-yl]ethyl}-1,3-dihydrobenzimidazol-2-one]
100 to 500	COc1ccc(C(C(=O)N2CCN(c3ccncc3)CC2)n2c(=O)n(S(=O)(=O)c3ccc(OC)cc3OC)c3ccc(Cl)cc32)cc1 (centres unmarked) [Example 1, 5-Chloro-1-(2,4-dimethoxybenzenesulfonyl)-3-[1-(4-methoxyphenyl)-2-oxo-2-(4-pyridin-4-ylpiperazin-1-yl)ethyl]-1,3-dihydrobenzimidazol-2-one]
500 to 10000	COc1ccc(S(=O)(=O)n2c(=O)n(C(C(=O)N[C@H]3CCNC3)c3ccccc3)c3cc(Cl)ccc32)cc1 (stereo partly drawn) [Example 173, 2-[6-Chloro-3-(4-methoxybenzenesulfonyl)-2-oxo-2,3-dihydrobenzimidazol-1-yl]-2-phenyl-N—(S)-pyrrolidin-3-ylacetamide]
